In article PMC4864078, “De Novo Transcriptome Analysis and Detection of Antimicrobial Peptides of the American Cockroach Periplaneta americana (Linnaeus)” (PLoS ONE, 2016):
Entries after “also recorded” stand apart in the source; their conditions may differ.

Tests used:
[1] = test system: C. albicans (ATCC 14053); assay type: cell-based, Candida albicans; details: Mueller-Hinton Broth, 2 × 10^4 CFU/mL, 18 h at 37°C, visible turbidity, complete growth inhibition
Protocol: (§1) The bacterial strains E. coli (KACC 13821, ATCC 11775) and Staphylococcus aureus (KACC 10768, ATCC 25923), and the yeast strain Candida albicans (KCTC 7121, ATCC 14053) were purchased from the Korean Agricultural Culture Collection (KACC) and Korean Collection for Type Cultures (KCTC). Both bacteria and the yeast were cultivated overnight in tryptic soy broth (TSB; Difco, USA) at 200 rpm in a 37°C shaking incubator to the stationary phase. Bacteria were cultivated for 3 h in fresh TSB medium under the same condition to the log phase. The strains were stored with 15% glycerol at −70°C until use.
(§2) In addition, antimicrobial activities of the peptides were also tested by broth microdilution assays against E. coli, S. aureus, and C. albicans. Briefly, microbes were grown overnight in Mueller-Hinton Broth (MHB) to the onset of the stationary phase with shaking at 200 rpm. The cultures were diluted in fresh MHB to a final concentration of 2 × 10^4 CFU/mL. A stock solution of each peptide was prepared to a concentration of 640 μg/mL in 0.01% acetic acid, and was then serially diluted two-fold to reach a concentration of 10 μg/mL. After 90-μL aliquots of the microbial suspension were dispensed into each well of a 96-well polypropylene microtiter plate, 10 μL of the peptide solution was added. The antimicrobial activities of the peptides were assessed by measuring the visible turbidity in each well of the plate after 18 h of incubation at 37°C. Minimum inhibitory concentrations (MICs) are expressed as a specific value that caused complete growth inhibition.

[2] = test system: E. coli; experiment: Radial diffusion assay; assay type: cell-based, Escherichia coli; details: diameter of growth inhibition zone after 12 h; compared with melittin; repeated three times
Protocol: as §1
(§3) The radial diffusion assay was performed to test the antimicrobial activities of peptides, as described previously with slight modifications. In brief, bacteria and yeast strains were grown to the mid-logarithmic phase in TSB at 37°C and then washed twice with 10 mM Tris-HCl (containing 5 mM glucose, pH 7.4). A total of 4 × 10^6 CFU was added to 10 mL of an underlay agarose gel [0.03% (w/v) TSB, 1% (w/v) agarose (Sigma, USA), and 0.02% (v/v) Tween 20 (Sigma, USA) in 10 mM Tris-HCl]. The underlay gel was poured into a 100-mm INTEGRID^TM Petri dish. After agarose solidification, 3-mm-diameter wells were punched and 5 μL of each peptide solution was added to each well. Buffer alone was used as a negative control. Plates were incubated at 37°C for 3 h to allow for diffusion of the peptides. The underlay gel was then covered with 10 mL of nutrient-rich agar overlay (6% TSB and 1% agarose in 10 mM Tris-HCl). […] This experiment was repeated at least 3 times and the same results were obtained.

[3] = test system: Gram-negative bacteria, Gram-positive bacteria, and yeast; experiment: Radial diffusion assay, statement over all three microbes; assay type: cell-based; details: increased in a dose-dependent manner, cleared zone after 12 h at 37°C
Protocol: as §1, §3

[4] = test system: C. albicans; experiment: Radial diffusion assay; assay type: cell-based, Candida albicans; details: diameter of growth inhibition zone after 12 h, repeated three times
Protocol: as §1, §3

[5] = test system: S. aureus (ATCC 25923); experiment: Broth microdilution assay (MIC); assay type: cell-based, Staphylococcus aureus; details: Mueller-Hinton Broth, 2 × 10^4 CFU/mL, 18 h at 37°C, visible turbidity, complete growth inhibition
Protocol: as §1, §2

[6] = test system: E. coli (ATCC 11775); experiment: Broth microdilution assay (MIC); assay type: cell-based, Escherichia coli; details: Mueller-Hinton Broth, 2 × 10^4 CFU/mL, 18 h at 37°C, visible turbidity, complete growth inhibition
Protocol: as §1, §2

[7] = test system: rat erythrocytes; experiment: Hemolytic assay; assay type: cell-based; details: 100 μg/mL, compared to melittin, 30 min at 37°C, A540
Protocol: This experiment was approved by the Institutional Animal Care and Use Committee (IACUC) of the National Academy of Agricultural Sciences (approval number: NAAS-1114). The hemolytic activity of the peptides was determined by monitoring the release of hemoglobin from rat erythrocytes at 540 nm. For the hemolytic assay, 20 μL of each peptide solution at a predetermined concentration was added to 180 μL of a 2.5% (v/v) suspension of rat erythrocytes in phosphate-buffered saline (PBS). Melittin (Sigma, USA), a hemolytic and α-helical peptide isolated from bee venom, was used as the positive control. This mixture was incubated for 30 min at 37°C, and 600 μL of PBS was then added to each tube. After 3 min of centrifugation at 10,000 ×g, the supernatant was […], and the absorbance was measured at 540 nm. Evaluations were made from the results of at least three independent experiments, each carried out in triplicate.

[8] = test system: S. aureus; experiment: Radial diffusion assay; assay type: cell-based, Staphylococcus aureus; details: diameter of growth inhibition zone after 12 h; compared with melittin; repeated three times
Protocol: as §1, §3

Row | Sequence | Minimum Inhibitory Concentration (MIC) [1] [µg/mL] | Antimicrobial activity in E. coli (radial diffusion assay) [2] | Antimicrobial activity in radial diffusion assay [3] | Antimicrobial activity against C. albicans (radial diffusion assay) [4] | Minimum Inhibitory Concentration (MIC) [5] [µg/mL] | Minimum Inhibitory Concentration (MIC) [6] [µg/mL] | Hemolytic activity [7] | Antimicrobial activity in S. aureus (radial diffusion assay) [8] | Antimicrobial activity against C. albicans (radial diffusion assay) ([4]; listed as Contig15_1337–1)
1 | ALQICTRNMIDDRLPYVADNVRPGTFIKQQRKQKQQRHHTSGTRKRMAKG [ISGCock_Contig04_0915, synthetic peptide, AMPA stretch of a predicted novel AMP from a P. americana transcript] | >64 | stronger antimicrobial activity than melittin | antimicrobial activity | strong antimicrobial activity | >64 | 64 | – | – | –
2 | HLYPCKLNLKLGKVPFHFLNLNHKGKSIMVNQQTCLYYIICQTR [ISGCock_Contig13_4610–1, synthetic peptide, first AMPA stretch of a predicted novel AMP from a P. americana transcript] | >64 | stronger antimicrobial activity than melittin | antimicrobial activity | strong antimicrobial activity | >64 | 64 | relatively low compared to that of melittin | greater than that of melittin | –
3 | KRMKLNAKKLSFCDHLNSYLNLSPTLFIHNSSKQWSHWLWHNGIRI [ISGCock_Contig15_1337–1, synthetic peptide, first AMPA stretch of a predicted novel AMP from a P. americana transcript] | 16 | – | antimicrobial activity | strong antimicrobial activity | >64 | >64 | relatively low compared to that of melittin | greater than that of melittin | highest antifungal activity of the tested peptides
4 | KRMKLNAKKLSFCDHLNSYLNLSPTLFIHNSSKQWSHWLWHNGIRI [ISGCock_Contig15_1337–2, synthetic peptide, second AMPA stretch of a predicted novel AMP from a P. americana transcript] | 64 | stronger antimicrobial activity than melittin; also recorded: highest antimicrobial activity of the tested peptides | antimicrobial activity | strong antimicrobial activity | >64 | >64 | relatively low compared to that of melittin | greater than that of melittin | –
5 | VVGRKHSILNCIPYLKKKKIMRLVESESIG [ISGCock_Contig12_4176, synthetic peptide, AMPA stretch of a predicted novel AMP from a P. americana transcript] | 8 | – | antimicrobial activity | strong antimicrobial activity | >64 | 8 | relatively low compared to that of melittin | greater than that of melittin | –
